Measurements: article PMC12040169 (PLOS Biology, 2025)

Assay: in vitro
Settings: human, hela cells, % viability

SMILES | viability at 28.5 h, 10 µM [%]
CCN(CC)C(=O)CN1CCC(Oc2nccnc2OCc2cc(C)on2)CC1 [CBK082959T] | 102
CCOC(=O)CN1CCC(Oc2nccnc2OCc2cc(C)on2)CC1 [CBK082960T] | 105
Cc1cc(COc2nccnc2OC2CCN(CCN3CCOCC3)CC2)no1 [CBK082961T] | 103
CSCCN1CCC(Oc2nccnc2OCc2cc(C)on2)CC1 [CBK082966T] | 89.7
Fc1ccccc1CN1CCC(Oc2nccnc2OCC2COc3ccccc3O2)CC1 (centres unmarked) [CBK082979T] | 101
NC(=O)CN1CCC(Oc2nccnc2OCC2COc3ccccc3O2)CC1 (centres unmarked) [CBK082987T] | 92.1
CCOC(=O)CN1CCC(Oc2nccnc2OCC2COc3ccccc3O2)CC1 (centres unmarked) [CBK082989T] | 96.6
N#CCCCN1CCC(Oc2nccnc2OCC2COc3ccccc3O2)CC1 (centres unmarked) [CBK082994T] | 86.8
CSCCN1CCC(Oc2nccnc2OCC2COc3ccccc3O2)CC1 (centres unmarked) [CBK082996T] | 92.7
c1ccc2c(c1)OCC(COc1nccnc1OC1CCN(CC3CC3)CC1)O2 (centres unmarked) [CBK083001T] | 96.5
Fc1ccc(Oc2nccnc2N2CCN(Cc3ccc(Cl)c(Cl)c3)CC2)cc1 [CBK083007T] | 92.3
Fc1ccc(Oc2nccnc2N2CCN(Cc3ccccc3F)CC2)cc1 [CBK083009T] | 91.8
Fc1ccc(Oc2nccnc2N2CCN(Cc3ccc(Cl)cc3)CC2)cc1 [CBK083010T] | 80.4
O=[N+]([O-])c1ccc(CN2CCN(c3nccnc3Oc3ccc(F)cc3)CC2)cc1 [CBK083015T] | 92.2
NC(=O)CN1CCN(c2nccnc2Oc2ccc(F)cc2)CC1 [CBK083018T] | 98.3
CCN(CC)C(=O)CN1CCN(c2nccnc2Oc2ccc(F)cc2)CC1 [CBK083020T] | 87.9
O=c1[nH]c2ccccc2n1CCCN1CCN(c2nccnc2Oc2ccc(F)cc2)CC1 [CBK083027T] | 88.2
CSCCN1CCN(c2nccnc2Oc2ccc(F)cc2)CC1 [CBK083028T] | 93.2
Fc1ccc(Oc2nccnc2N2CCN(CC3CC3)CC2)cc1 [CBK083033T] | 91.8
COc1ccc(Oc2nccnc2N2CCN(Cc3ccc(Cl)cc3)CC2)cc1OC [CBK083041T] | 87.3
COc1ccc(Oc2nccnc2N2CCN(Cc3ccc(C(F)(F)F)cc3)CC2)cc1OC [CBK083044T] | 102
COc1ccc(Oc2nccnc2N2CCN(Cc3ccc([N+](=O)[O-])cc3)CC2)cc1OC [CBK083046T] | 86.4

SMILES | viability at 28.5 h, 10 µM [%]
COc1ccc(Oc2nccnc2N2CCN(Cc3ccc4c(c3)OCO4)CC2)cc1OC [CBK083048T] | 106
COc1ccc(Oc2nccnc2N2CCN(CC3CCCCC3)CC2)cc1OC [CBK083064T] | 98.6
COc1ccc(Oc2nccnc2N2CCN(CCc3ccccn3)CC2)cc1OC [CBK083067T] | 93.2
Clc1ccc(COc2nccnc2N2CCN(Cc3ccc4c(c3)OCO4)CC2)cc1Cl [CBK083078T] | 109
NC(=O)CN1CCN(c2nccnc2OCc2ccc(Cl)c(Cl)c2)CC1 [CBK083079T] | 111
N#CCCCN1CCN(c2nccnc2OCc2ccc(Cl)c(Cl)c2)CC1 [CBK083086T] | 94
O=[N+]([O-])c1ccc(CN2CCC(Oc3nccnc3OCc3ccc(Cl)c(Cl)c3)CC2)cc1 [CBK083107T] | 104
NC(=O)CN1CCC(Oc2nccnc2OCc2ccc(Cl)c(Cl)c2)CC1 [CBK083110] | 104
Clc1ccc(COc2nccnc2OC2CCN(CC3CC3)CC2)cc1Cl [CBK083123T] | 92.4
Clc1ccc(CN2CCN(c3nccnc3OCc3cccnc3)CC2)cc1Cl [CBK083128T] | 105
Clc1ccc(CN2CCN(c3nccnc3OCc3cccnc3)CC2)cc1 [CBK083130T] | 99.6
FC(F)(F)c1ccc(CN2CCN(c3nccnc3OCc3cccnc3)CC2)cc1 [CBK083133T] | 101
CCN(CC)C(=O)CN1CCN(c2nccnc2OCc2cccnc2)CC1 [CBK083140] | 100
c1cncc(COc2nccnc2N2CCN(CCN3CCOCC3)CC2)c1 [CBK083141] | 104
N#CCCCN1CCN(c2nccnc2OCc2cccnc2)CC1 [CBK083144] | 96.3
Fc1ccccc1CN1CCC(Oc2nccnc2OCc2cccnc2)CC1 [CBK083157T] | 91.8
c1cncc(COc2nccnc2OC2CCN(Cc3cccnc3)CC2)c1 [CBK083158] | 108
CCN(CC)c1ccc(C(=O)CN2CCC(Oc3nccnc3OCc3cccnc3)CC2)cc1 [CBK083167T] | 112
N#CCCCN1CCC(Oc2nccnc2OCc2cccnc2)CC1 [CBK083171] | 85.9
COc1ccc(CCN2CCC(Oc3nccnc3OCc3cccnc3)CC2)cc1OC [CBK083179T] | 99
c1cncc(COc2nccnc2OC2CCN(CCOc3cccnc3)CC2)c1 [CBK083181] | 92.1
CCC1CCCCN1C(=O)c1ccccc1C(=O)OC (centres unmarked) [CBK083196] | 92.4
